The text below walks through data of patent US20060046972A1, “Cytotoxic nucleoside analog compound 003 for treating cancer” (Parker Hughes Institute, priority 2004, published 2006).

“Also recorded” adds a separate entry of the source. Where two headings read alike, the source gives them in different places.

The subject of series [1] is BT20 breast cancer cells. The series can be described thus: Confocal laser scanning microscopy of microtubules / mitotic spindle, BT20. It is filed as cell-based, human. The conditions noted are these: 185 μM for 24 hours (AZT: similar concentrations). The method, then:
Immunofluorenscence was used to examine the spindle features of human cancer cell lines treated with Compound 003 or 0.5% DMSO. […] The coverslips were incubated with antibodies raised against α-tubulin, γ-tubulin (Sigma Chemical Co., St Louis, Mo.) (40 min 37° C.), washed in PBS-Tx-100, and incubated with an appropriate secondary antibody conjugated to FITC (Jackson ImmunoResearch, Westgrove, Pa.). Cellular DNA was labeled with 5 μM TOTO3 (Molecular Probes, Eugene, Oreg.) for 20 minutes. Coverslips were immediately inverted onto slides in Vectashield (Vector Labs, Burlingame, Calif.) to prevent photobleaching, sealed with nail varnish and stored at −20° C. The slides were examined using a Bio-Rad MRC-1024 Laser Scanning Confocal Microscope equipped with a Kr/Ar laser (BioRad, Hercules, Calif.) mounted on a Nikon Eclipse E800 upright microscope with high numerical aperture objectives (Nikon, Melville, N.Y.). Digital data were processed using Lasersharp (BioRad) and Adobe Photoshop software (Adobe Systems, Mountain View, Calif.). ( See, for example, Navara, et al., 2001, Anticancer Drugs. 12:369; Malaviya, et al., 2002, Leuk Lymphoma. 43, 1329; and Ghosh, 1998, Clin Cancer Res. 4, 2657).

Series [2] can be described thus: Pharmacokinetics in CD-1 mice after intravenous or oral Compound 003. The settings on record: female, CD-1, mouse. The series is classed as in vivo. The method, then:
Each plasma sample (200 μL) was mixed 1:4 with acetone (800 μL) and vortexed for at least 30 seconds. Following centrifugation, the supernatant was transferred into a clean tube and dried under nitrogen. A 50 μL solution of 50% methanol in 200 mM HCl was used to reconstitute the extraction residue, and 35 μL was subjected to analytical HPLC. The analytical column used was a 250×4 mm Lichrospher 100, RP-18 (5 μm) and the guard column was a 4×4 mm Lichrospher 100, RP-18 (5 μm). The mobile phase was degassed automatically by the electronic degasser system. The column was equilibrated and eluted under gradient conditions utilizing a flow rate of 1.0 ml/min at ambient temperature. The linear gradient mobile phase was: 0 minute, 100% 10 mM ammonium phosphate buffer (pH 3.7); 20 minutes, 20% acetonitrile, 80% ammonium phosphate buffer (pH 3.7); 20.1-50 minutes, 28% acetonitrile, 72% water (0.1% HAC). The wavelength of detection was set at 270 nm. Peak width, response time and slit werep, set at >0.03 minutes, 0.5 s and 8 nm, respectively.
Female CD-1 mice (6-8 weeks old) (Charles River, Wilmington, Mass.) were housed in a USDA-accredited animal care facility under standard environmental conditions (12-h light/12-h dark photoperiod, 22±1° C., 60±10% relative humidity). All rodents were housed in microisolator cages (Lab Products, Inc., N.J.) containing autoclaved bedding. Mice were allowed free access to autoclaved pellet food and tap water throughout the study. All animal studies are approved by the Parker Hughes Institute Animal Care and Use Committee, and all animal care procedures conformed to the principles outlined in the Guide for the Care and Use of Laboratory Animals (National Research Council;. National Academy Press, Washington D.C. 1996).
Compound 003 (200 mg/kg) dissolved in DMSO was administered intravenously via tail vein to non-fasted mice or orally via gavage to 12-h fasted mice. Four to six mice per time-point were used for pharmacokinetic studies. Blood samples (˜500 μL) were obtained from the ocular venous plexus by retro-orbital venipuncture at 0, 5, 10, 15, 30, 45 minutes, and 1 h, 1.5 h, 2 h, 4 h, 6 h and 8 h after oral administration. All collected blood-samples were heparinized and centrifuged at 7000×g for 5 minutes to separate the plasma fraction from the whole blood. The plasma samples were then processed immediately using the extraction procedure described above.
Pharmacokinetic modeling and parameter calculations were carried out using the WinNonlin Professional Version 3.0 (Pharsight, Inc., Mountain, Calif.) pharmacokinetics software (Chen, C. L., et al., (1999) Pharm Res. 16:117; Chen, C. L., et al., (1999) Pharm Res. 16:1003; Uckun, F. M., et al., (1999) Clin Cancer Res. 5:2954). An appropriate model was chosen on the basis of the lowest sum of weighted squared residuals, the lowest Schwartz Criterion (SC), the lowest Akaike's Information Criterion (AIC) value, the lowest standard errors of the fitted parameters, and the dispersion of the residuals. The elimination half-life was estimated by linear regression analysis of the terminal phase of the plasma concentration-time profile. The systemic clearance (CL) was determined by dividing the dose by the AUC.

The conditions of series [3]: Wang et al. (1996); cited from earlier work.
The test system of series [4] is esterase-mediated metabolism of Compound 003 in BT20 cells. The series can be described thus: Inhibition of ala-AZT-MP formation by esterase inhibitors, BT20. The series is classed as cell-based, human. The protocol: (§1) BT20 breast cancer cells were cultured in a medium composed of MEM, 10% FBS, 0:1 mM of nonessential amino acids and Earles salts, and 1% penicillin/streptornyclin Nalm6 cells were maintained in a medium composed of RPMI, 10% fetal bovine serum (FBS) and 1% penicillin/streptomycin. BT20 cells were seeded in 6-cm petri-dishes at 4 million cells per plate. Nalm6 cells at a density of 10^6 cells per ml were also utilized in drug metabolism study. Either one plate of adherent cells or 10 million nonadherent cells were utilized at each experiment. Cells were incubated with DMSO or 100 μM of esterase inhibitor, paraoxon, bis(p-nitrophenyl)phosphate (BNPP), physostigmine, or phenylmethylsulfonyl fluoride (PMSF) (Sigma) for 3.0 minutes, followed by 1 hour incubation of 100 μM Compound 003. After incubation, cells were washed two times with ice-cold PBS, and extracted by addition of 60% methanol. Cell lysates were kept at −20° C. overnight, after which lysates were centrifuged at 15,000×g for 10 minutes to remove the cell debris. One hundred microliters of these lysates were injected directly to HPLC. The amount of metabolite product of the esterase reaction, ala-AZT-MP, was measured to examine the effect of inhibitors on esterase-mediated metabolism of Compound 003.

Series [5] relates to BT20 cells. The series can be described thus: Metabolite efflux from cells to the medium. The conditions noted are these: 100 μM Compound 003 1 hr, efflux after 6 hr. The series is classed as in vitro ADME, human. An excerpt:
(§2) Intracellular metabolism of Compound 003 was studied in CEM T-lineage lymphoma cell line, BT20 breast cancer cell line, T98 glioblastoma cell line, and Nalm-6 B-lineage leukemia cell line. CEM and Nalm6 cells were maintained in RPMI supplemented with 10% fetal bovine serum, and 1% penicillin/streptomycin. BT20 and T98 cells w.ere cultured in a medium composed of MEM, 10% fetal bovine serum, 0.1-mM of nonessential amino acids and Earles salts, and 1% penicillin/streptomycin. CEM and Nalm6 cells at a density of 10^6 cells per ml were utilized in the drug metabolism study. BT20 and T98 cells were seeded in 6-cm petri-dishes at 4 million cells and 2 million cells per plate, respectively, the day before the experiment. Either one plate of adherent cells or 10 million non-adherent cells was utilized at each time point. Cells were incubated with various concentrations of the compounds up to 24 hrs at 37° C. After incubation, cells were washed 2 times with ice-cold PBS, and extracted by addition of 0.5-1 ml of 60% methanol. […] With efflux experiments, cells 1×10^6/mL (the same density as in the uptake study) were incubated with 100 μM Compound 003 for 1 hr, washed 2 times with ice-cold PBS, and resuspended with culture medium without drug, and the metabolite efflux from cells to the medium was measured after 6 hr of incubation.

For series [6], the system named is Nalm-6 B-lineage leukemia cell line. The series can be described thus: Intracellular metabolism of Compound 003 to ala-AZT-MP, Nalm6. It is filed as in vitro ADME, human.
Text: as §2, with “incubation. […]” for “incubation.”

Series [7] concerns BT20 breast cancer cell line. The series can be described thus: Intracellular metabolism of Compound 003 to ala-AZT-MP, BT20. It is filed as in vitro ADME, human.
Text: as §2, with “methanol. Cell lysates were kept at −20° C. overnight, after which lysates were centrifuged at 15000×g for 10 minutes to remove the cell debris. One hundred microliters of these lysates were injected directly to HPLC. For half-life study, cells at the same density as in drug metabolism study were treated with 100 μM Compound 003 for 2 hrs, after which cells were washed 2 times with ice-cold PBS, and resuspended in warm media until the time they were harvested. For uptake and efflux study, cells were seeded at 2 million cells in 2 ml of media.” for “methanol.”, “incubation. […]” for “incubation.”

Series [8] has as its system CEM T-lineage lymphoma cell line. The series can be described thus: Intracellular metabolism of Compound 003 to ala-AZT-MP, CEM. It is filed as in vitro ADME, human.
Text: as §2, with “incubation. […]” for “incubation.”

Series [9] relates to esterase-mediated metabolism of Compound 003 in Nalm6 cells. The series can be described thus: Inhibition of ala-AZT-MP formation by esterase inhibitors, Nalm6. The series is classed as cell-based, human. The settings on record: 100 μM inhibitor, then 100 μM Compound 003 1 hour. The protocol:
as §1

Setting [10] is: iv, plasma metabolite following i.v. 200 mg/kg Compound 003.
Where [11] appears, read: iv, plasma metabolite following i.v. 200 mg/kg Compound 003, read-out: elimination half-life (t1/2).
Setting [12] is: po, plasma metabolite following p.o. 200 mg/kg Compound 003.
[13] abbreviates: plasma metabolite following oral 200 mg/kg Compound 003, read-out: elimination half-life.

Regarding `Cc1cn([C@H]2C[C@H](N=[N+]=[N-])[C@@H](CO)O2)c(=O)[nH]c1=O` [AZT, 3′-azido-3′-deoxythymidine, reference compound], in series [1], the effect on microtubules result was “no effect on microtubules”. Further, in [2] (setting [10]), the AUC is 152 µM·h, the Cmax turned out to be 64.3 µM and the Tmax is 50.4 min. The half-life in [2] (setting [11]) came to 35 min. Besides, in series [2] (setting [12]), the AUC came out at 386 ± 124 µM·h, the Cmax was found to be 46.9 µM and the Tmax was 144 min. In addition, in [2] (setting [13]), the half-life is 149 min. In addition, the “elimination t1/2 of AZT given as such” value in [3] was around 21.2 min.

`O=[N+]([O-])c1ccc(OP(=O)(O)Oc2ccc([N+](=O)[O-])cc2)cc1` [BNPP, Bis(p-nitrophenyl)phosphate]: the “potency order of esterase inhibitors” value in series [4] was “paraoxon>BNPP>PMSF>physostigmine”.

In the case of `O=S(=O)(F)Cc1ccccc1` [PMSF, phenylmethyl sulfonyl fluoride], the “potency order of esterase inhibitors” value in series [4] is recorded as “paraoxon>BNPP>PMSF>physostigmine”.

Regarding `Cc1cn(C2CC(N=[N+]=[N-])C(COP(=O)(O)NC(C)C(=O)O)O2)c(=O)[nH]c1=O` (centres unmarked) [ala-AZT-MP, 3′-azido-3′-deoxythymidine-5′-alaninyl phosphate], the “efflux of ala-AZT-MP” value in series [5] is reported as “only detectable from BT20 cells”. Besides, the figures for the “further intracellular conversion of ala-AZT-MP” value in [6], in series [7] and in series [8] were “converted to AZT first then to AZTmp”, “preferentially converted to AZT-MP” and “only AZT was detectable”, respectively. Also, the “intracellular accumulation of ala-AZT-MP, BT20 relative to the other three cell lines” value in series [7] (25-100 μM Compound 003, 3 hr) is listed as 6-12 fold. Moreover, the “level of ala-AZT-MP formation, CEM relative to Nalm6” value in [8] (intact cells) is given as 2 fold. The values for the AUC in series [2] (setting [10]) and in series [2] (setting [12]) were 191 µM·h and 20.7 ± 8.5 µM·h, respectively. Besides, the Cmax amounted to 1880 µM in series [2] (setting [10]) and 9.8 µM in [2] (setting [12]). Moreover, the Tmax in series [2] (setting [10]) was 1.2 min; in [2] (plasma, 200 mg/kg, mice, after Compound 003, route not distinguished), below 5 min; in series [2] (setting [12]), 4.5 min. In addition, the half-life in series [2] (setting [11]) is 33.2 min; in series [2] (setting [13]), 94.5 min.

For `CCOP(=O)(OCC)Oc1ccc([N+](=O)[O-])cc1` [paraoxon], the “inhibition of metabolism of Compound 003 to ala-AZT-MP” value in series [9] is reported as “most potent inhibitor; also recorded: only paraoxon was effective in inhibiting the metabolism”. Further, in series [4], the “potency order of esterase inhibitors” value is given as “paraoxon>BNPP>PMSF>physostigmine”.

The AUC is the area under the concentration-time curve, a measure of exposure. In general, Cmax refers to the peak of the concentration-time curve. The Tmax is the time at which the peak concentration occurs.
